Numbering of substitutions follows the chain as printed.
Tests used:
Type in all cases: biochemical
[1] = biological target: T1, Oryza sativa EPSPS, native, SEQ ID NO:7 (Oryza sativa, UniProt Q93VK6); assay: EPSPS substrate saturation kinetics, native rice
T1 sequence (Q93VK6 64-511): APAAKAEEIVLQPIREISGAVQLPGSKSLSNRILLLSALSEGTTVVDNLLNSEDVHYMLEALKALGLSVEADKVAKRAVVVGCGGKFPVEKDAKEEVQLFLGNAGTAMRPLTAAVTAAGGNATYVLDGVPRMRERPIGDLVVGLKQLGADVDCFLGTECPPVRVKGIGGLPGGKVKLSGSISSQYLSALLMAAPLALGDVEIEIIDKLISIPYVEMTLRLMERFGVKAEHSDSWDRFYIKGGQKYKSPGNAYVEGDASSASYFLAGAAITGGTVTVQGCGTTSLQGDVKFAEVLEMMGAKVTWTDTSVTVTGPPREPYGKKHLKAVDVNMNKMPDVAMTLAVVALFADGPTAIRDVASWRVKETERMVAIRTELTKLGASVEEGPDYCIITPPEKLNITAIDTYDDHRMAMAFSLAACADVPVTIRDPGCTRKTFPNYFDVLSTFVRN
Protocol: (§1) EPSPS activity was determined by quantifying the phosphate generated from the EPSPS reaction. Release of inorganic phosphate was coupled to reaction with 2-amino-6-mercapto-7-methylpurine ribonucleoside, catalyzed by purine-nucleoside phosphorylase (M R Webb, Proc. Natl. Acad. Sci. 89:4884-4887, 1992). The absorbance change that occurs was monitored at 360 nm, where the extinction is 11,200 M^−1 cm^−1, with a Spectramax plate reader (Molecular Devices). To determine kinetic parameters, the varied substrate was present at seven concentrations (the eighth being the blank, containing no substrate) ranging from 4 to 400 uM and the unvaried substrate present at saturation. Six microliters of 50-fold concentrated stock solutions of the varied substrate were placed in the wells of the 96-well assay plate and reactions were started with the addition of a mixture containing 25 mM Hepes, pH 7, 100 mM KCl, 0.3 mM 2-amino-6-mercapto-7-methylpurine ribonucleosde, 1 uM (1 unit/ml) purine-nucleoside phosphorylase (Sigma N8264) and 200 uM of the non-varied substrate. Reactions were monitored with a Spectramax plate reader. The Michaelis-Menten kinetics protocol of the Spectramax software was customized for the substrate concentrations used. The software returns values of KM and Vmax using the Lineweaver-Burke transformation of the Michaelis-Menten equation. To determine kcat, Vmax (uM/min) was divided by the enzyme concentration (uM). […] KI was then calculated from the following form of the Michaelis-Menten equation for competitive inhibition: KI=KM[I]/(KM app−KM) KM approximates the dissociation constant of the enzyme-substrate complex while kcat is the rate of conversion of substrate to product when the substrate concentration is saturating. kcat/KM is a widely accepted parameter for catalytic efficiency when substrate concentration is low (˜KM). […] The parameter kcat/KM×KI is used to quantify both catalytic efficiency and insensitivity and thus the overall fitness of the enzyme.
Native EPSPS amino acid sequences of rice (Oryza sativa) (SEQ ID NO:7), sorghum (Sorghum halepense) (SEQ ID NO:8), and sunflower (Helianthus annus) (SEQ ID NO:9) including the chloroplast transit peptide sequences were assembled and analyzed for mapping the corresponding amino acid mutations from the maize 868-H6. If complete EPSPS sequences were not available, appropriate adjustments were made based on sequence alignments and conserved residue mapping.
ChloroP Prediction Server (Emanuelsson, O. et al. 1999. Protein Sci. 8(5):978-84) was used to approximate the amino terminus of the mature EPSPS proteins. […] The synthetic genes were cloned into a plasmid vector and expressed, purified and analyzed as described in Example 1.

[2] = biological target: T2, Zea mays EPSPS variant V-G at positions 103-107 (Zea mays, UniProt O24566, P106G/T102V); assay: EPSPS substrate saturation kinetics, maize variant 103V 107G
T2 sequence (O24566 with tags, fused parts or gaps T102V/P106G): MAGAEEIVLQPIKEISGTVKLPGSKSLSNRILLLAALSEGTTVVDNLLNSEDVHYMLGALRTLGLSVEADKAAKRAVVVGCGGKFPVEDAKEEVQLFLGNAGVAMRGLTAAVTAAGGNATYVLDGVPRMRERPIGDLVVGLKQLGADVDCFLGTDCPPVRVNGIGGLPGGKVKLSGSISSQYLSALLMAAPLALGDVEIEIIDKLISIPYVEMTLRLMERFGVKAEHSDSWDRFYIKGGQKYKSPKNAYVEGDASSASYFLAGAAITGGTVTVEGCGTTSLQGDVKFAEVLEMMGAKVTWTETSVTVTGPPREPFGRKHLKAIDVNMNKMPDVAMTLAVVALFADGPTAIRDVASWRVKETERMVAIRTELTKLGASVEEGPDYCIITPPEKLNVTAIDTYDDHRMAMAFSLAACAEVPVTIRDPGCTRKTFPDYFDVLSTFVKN
Protocol: as §1, with “enzyme. […]” for “enzyme.”

[3] = system: Zea mays EPSPS variant G-W at positions 103-107 (EPSPS-TGPW; T103G P107W); assay: EPSPS substrate saturation kinetics, maize variant 103G 107W (EPSPS-TGPW)
Protocol: as §1
(§2) NNK-enabled saturation mutagenesis was performed at positions 103 and 107 in the maize EPSPS sequence, and transformed BL21 DE3 cells were screened as described above.

[4] = biological target: T3, Zea mays EPSPS variant G-W at positions 103-107 (EPSPS-TGPW; T103G P107W) (Zea mays, UniProt O24566, P106W/T102G); assay: as above
T3 sequence (O24566 with tags, fused parts or gaps T102G/P106W): T2 sequence (O24566 with tags, fused parts or gaps T102V/P106G) with V103G, G107W
Protocol: as §1, §2

[5] = PEP as substrate, glyphosate as inhibitor

SMILES | kcat ([1]; PEP varied) [s⁻¹] | Km ([1]; read-out: KM (PEP), PEP varied) [µM] | kcat ([2]; PEP varied) | catalytic efficiency (kcat/KM) relative to native maize EPSPS ([3]; PEP) [%] | higher KM for PEP ([3]; relative to native maize EPSPS) [fold] | lower kcat ([3]; relative to native maize EPSPS) [fold] | kcat ([4]; PEP varied) | Ki [1] [µM] | (kcat/KM)*KI [1, 5] | Ki [2] [µM] | (kcat/KM)*KI [2, 5] | less sensitive to glyphosate ([3]; relative to native maize EPSPS) | Ki [4] [µM] | (kcat/KM)*KI [4, 5]
C=C(OP(=O)(O)O)C(=O)O [PEP, phosphoenolpyruvate] | 30.97 | 12.6 | 324 | 5 | 5 | 4 | 379 | – | – | – | – | – | – | –
O=C(O)CNCP(=O)(O)O [glyphosate, N-phosphonomethylglycine] | – | – | – | – | – | – | – | 0.1 | 18 | 480 | 1170 | about 3,000 fold | 403 | 1862

From patent US11549123B2, “Plant EPSP synthases and methods of use” (PIONEER HI-BRED INTERNATIONAL, INC., priority 2015, dated 2023)
